Source: patent US6692557B1, “Antifouling of shellfish and aquaculture apparatus” (Unisearch Limited, priority 1997, dated 2004)

Assays:
Pacific oyster recruits = assay: Port Stephens Stage I field trial: Pacific oyster bycatch on coated oysters; type: in vivo; conditions: sub-tidal, double coated treatments, at either 10 or 15%
From the text: After twelve weeks into the fouling trial there was a Pacific oyster settlement event. This enabled an observation of the efficacy of the different coatings as inhibitors of oyster bycatch. FIG. 9 presents the number of new Pacific oyster recruits that settled on the coated oysters.

[1] = Stage II shellac trial: leaching / release of Sea-Nine 211 from shellac; type: physicochemical
Experimental: (§1) The shellac trial (stage II) was run for 30 weeks. This experiment was conducted to improve novel antifouling techniques for the aquaculture industry. Shellac was used as a carrier to coat Sea-Nine 211™ onto perspex tiles to determine whether Shellac with C9-211 was effective as an antifouling application and whether the rate at which Sea-Nine 211™ would leach out of the shellac formulation.
Measurements of leaching were carried out to determine the decrease in concentration of Sea-Nine 211™ in each treatment, as shown on FIG. 11. This indicates a regular rate of leaching over the 18 week trial period for each treatment of the same concentration. The rate of leaching is highest for the 15% Sea-Nine 211™ loadings (single and double), while decreasing with reduced compound loading.
The rate of compound release per day is important on determining the effectiveness of a given treatment over time (FIG. 12). Treatments 5% single layer, 10% single and double layer and 15% double layer had the highest initial drops with release rates from 1-2 μg/cm^2/day. The release rate varied for each treatment, over the following 16 weeks, but remained less than 2.0 μg/cm^2/day (FIG. 12).

[2] = tested on: fouling organisms (predominantly barnacles, small percentages of bryozoans and oysters); assay: Port Stephens Stage I field trial: fouling cover on coated live oysters; type: in vivo; conditions: sub-tidal; for Mean fouling cover on coated oysters: 22 week trial, untreated control 50%
From the text: The field trial testing the antifouling coatings on oysters at the Port Stephens Fisheries Centre was finalised on week 22 of the trial. This coincided with the slight increase, at varying rates, of the fouling cover on the treated oysters, as shown by FIG. 8.
The trial was testing the antifouling efficacy of two different active ingredients (AI's). Sea-Nine 211™ and the furanone 281, incorporated into carrier coatings when applied to live oysters. The AI's are being tested at concentrations ranging from 10-15% by weight of the carrier coating, using both single and double coats. The trial was conducted in both the inter-tidal and the sub-tidal. In addition to monitoring fouling, oyster mortality was monitored to determine if the coatings and methods used were harmful to the oysters.
Fouling cover was first measured 6 weeks after the start of the trial and has been measured every 3 weeks thereafter. Coated oysters were photographed in the field using a digital camera and fouling cover was measured in the laboratory using the digital images. Fouling cover was measured by estimating the percentage cover of fouling organisms on the oysters. The fouling cover observed was comprised predominantly of barnacles and a small percentages of bryozoans and oysters.

fouling organisms = assay: Stage II shellac trial: fouling on coated perspex tiles; type: in vivo; conditions: shellac carrier, 10% double layer, 15% single and double layers, controls 75% fouling cover after 4 weeks
Experimental: as §1

Which results are given for CCCCCCCCn1sc(Cl)c(Cl)c1=O [Sea-Nine 211™, 4,5-dichloro-2-n-octyl-4-isothiazolin-3-one]?
Inhibition of Pacific oyster bycatch (Pacific oyster recruits): almost totally inhibiting bycatch; Rate of leaching from shellac ([1]; 15% loadings (single and double), 18 week trial period): highest; Release rate from shellac ([1]; each treatment, over the following 16 weeks): less than 2.0 μg/cm^2/day; Release rate from shellac ([1]; initial, treatments 5% single layer, 10% single and double layer, 15% double layer): 1-2 μg/cm^2/day; Mean fouling cover on coated oysters ([2]; active ingredient 10%, single and double coatings): 20%; Mean fouling cover on coated oysters ([2]; active ingredient 15% in carrier coating, single and double coats): 15%; Inhibition of fouling cover ([2]; 15% single and double coats): 85%; Time tiles remained unfouled (fouling organisms): 30 weeks
